Results reported in ChEMBL document CHEMBL5653631, “A Potent and Selective ULK1 Inhibitor Suppresses Autophagy and Sensitizes Cancer Cells to Nutrient Stress” (iScience, 2018).
Values belong to the compound of their own block, whether it stands above or below them.

Key:
[1] = molecular target: T1, Dual specificity protein kinase TTK (Homo sapiens) (UniProt P33981); assay: Inhibition of human recombinant TTK at 500 nM in presence of ATP by radiometric assay relative to control
T1 sequence (whole entry): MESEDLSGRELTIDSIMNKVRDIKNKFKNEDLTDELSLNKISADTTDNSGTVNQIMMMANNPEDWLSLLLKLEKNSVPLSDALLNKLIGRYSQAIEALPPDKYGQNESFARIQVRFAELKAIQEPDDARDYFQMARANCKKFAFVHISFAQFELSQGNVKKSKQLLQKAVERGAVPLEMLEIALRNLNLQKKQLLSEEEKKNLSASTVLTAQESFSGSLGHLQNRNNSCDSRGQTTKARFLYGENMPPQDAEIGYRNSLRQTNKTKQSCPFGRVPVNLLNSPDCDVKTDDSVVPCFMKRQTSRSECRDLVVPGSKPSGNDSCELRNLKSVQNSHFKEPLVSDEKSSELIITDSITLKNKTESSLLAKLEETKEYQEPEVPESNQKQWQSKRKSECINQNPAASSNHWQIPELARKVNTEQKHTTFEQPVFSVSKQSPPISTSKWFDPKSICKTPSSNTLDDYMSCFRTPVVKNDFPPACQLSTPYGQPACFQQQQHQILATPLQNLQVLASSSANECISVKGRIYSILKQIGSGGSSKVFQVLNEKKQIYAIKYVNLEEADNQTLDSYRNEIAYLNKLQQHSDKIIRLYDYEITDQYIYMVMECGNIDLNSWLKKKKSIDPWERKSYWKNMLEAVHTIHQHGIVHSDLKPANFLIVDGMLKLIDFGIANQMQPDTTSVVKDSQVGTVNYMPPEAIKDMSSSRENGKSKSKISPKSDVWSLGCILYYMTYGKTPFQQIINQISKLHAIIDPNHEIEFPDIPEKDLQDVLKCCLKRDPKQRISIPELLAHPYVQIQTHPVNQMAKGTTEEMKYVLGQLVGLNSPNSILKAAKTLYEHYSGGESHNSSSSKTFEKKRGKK

[2] = molecular target: T2, Inhibitor of nuclear factor kappa-B kinase subunit epsilon (Homo sapiens) (UniProt Q14164); assay: Inhibition of human recombinant IKKe at 500 nM in presence of ATP by radiometric assay relative to control
T2 sequence (whole entry): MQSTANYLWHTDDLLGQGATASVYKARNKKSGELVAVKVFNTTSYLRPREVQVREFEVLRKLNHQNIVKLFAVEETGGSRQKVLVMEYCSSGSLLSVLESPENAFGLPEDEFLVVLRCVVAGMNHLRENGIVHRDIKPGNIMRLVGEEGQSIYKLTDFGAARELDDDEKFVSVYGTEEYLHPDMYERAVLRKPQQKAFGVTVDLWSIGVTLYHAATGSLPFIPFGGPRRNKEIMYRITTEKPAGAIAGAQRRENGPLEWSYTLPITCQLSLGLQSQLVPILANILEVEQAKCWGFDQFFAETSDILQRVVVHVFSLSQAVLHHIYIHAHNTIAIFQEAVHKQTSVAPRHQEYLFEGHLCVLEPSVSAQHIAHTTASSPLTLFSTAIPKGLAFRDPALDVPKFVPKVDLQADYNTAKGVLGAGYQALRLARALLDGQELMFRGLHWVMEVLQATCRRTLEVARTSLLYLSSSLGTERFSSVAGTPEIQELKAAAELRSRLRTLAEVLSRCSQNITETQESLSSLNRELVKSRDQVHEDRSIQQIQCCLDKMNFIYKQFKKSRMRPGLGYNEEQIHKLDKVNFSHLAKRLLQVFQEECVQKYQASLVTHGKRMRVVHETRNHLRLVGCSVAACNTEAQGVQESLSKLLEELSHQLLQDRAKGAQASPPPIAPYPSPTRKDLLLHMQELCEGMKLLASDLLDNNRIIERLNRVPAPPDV

[3] = molecular target: Serine/threonine-protein kinase PAK 3 (Homo sapiens) (UniProt O75914); assay: Inhibition of human recombinant PAK3 at 40 nM related to control ULK1
Serine/threonine-protein kinase PAK 3 (Homo sapiens), sequence (O75914 whole entry, looked up): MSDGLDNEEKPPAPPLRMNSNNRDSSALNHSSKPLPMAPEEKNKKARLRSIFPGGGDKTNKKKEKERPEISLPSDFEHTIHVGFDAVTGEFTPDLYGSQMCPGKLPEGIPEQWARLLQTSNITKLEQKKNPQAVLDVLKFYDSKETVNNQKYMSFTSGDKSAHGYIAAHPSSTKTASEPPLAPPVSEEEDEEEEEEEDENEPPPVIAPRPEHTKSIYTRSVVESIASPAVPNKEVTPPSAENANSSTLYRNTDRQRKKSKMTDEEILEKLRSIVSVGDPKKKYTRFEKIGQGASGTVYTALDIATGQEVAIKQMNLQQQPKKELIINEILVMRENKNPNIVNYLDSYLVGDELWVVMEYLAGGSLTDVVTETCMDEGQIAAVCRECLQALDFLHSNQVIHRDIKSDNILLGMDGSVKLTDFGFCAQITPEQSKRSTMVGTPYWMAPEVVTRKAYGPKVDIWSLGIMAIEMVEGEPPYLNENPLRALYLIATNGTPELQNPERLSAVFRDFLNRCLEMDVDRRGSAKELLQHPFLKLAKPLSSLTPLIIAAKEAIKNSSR

[4] = molecular target: Insulin receptor (Homo sapiens) (UniProt P06213); assay: Inhibition of human recombinant INSR at 40 nM in presence of ATP by radiometric assay relative to control
Insulin receptor (Homo sapiens), sequence (P06213 28-758 limits assumed): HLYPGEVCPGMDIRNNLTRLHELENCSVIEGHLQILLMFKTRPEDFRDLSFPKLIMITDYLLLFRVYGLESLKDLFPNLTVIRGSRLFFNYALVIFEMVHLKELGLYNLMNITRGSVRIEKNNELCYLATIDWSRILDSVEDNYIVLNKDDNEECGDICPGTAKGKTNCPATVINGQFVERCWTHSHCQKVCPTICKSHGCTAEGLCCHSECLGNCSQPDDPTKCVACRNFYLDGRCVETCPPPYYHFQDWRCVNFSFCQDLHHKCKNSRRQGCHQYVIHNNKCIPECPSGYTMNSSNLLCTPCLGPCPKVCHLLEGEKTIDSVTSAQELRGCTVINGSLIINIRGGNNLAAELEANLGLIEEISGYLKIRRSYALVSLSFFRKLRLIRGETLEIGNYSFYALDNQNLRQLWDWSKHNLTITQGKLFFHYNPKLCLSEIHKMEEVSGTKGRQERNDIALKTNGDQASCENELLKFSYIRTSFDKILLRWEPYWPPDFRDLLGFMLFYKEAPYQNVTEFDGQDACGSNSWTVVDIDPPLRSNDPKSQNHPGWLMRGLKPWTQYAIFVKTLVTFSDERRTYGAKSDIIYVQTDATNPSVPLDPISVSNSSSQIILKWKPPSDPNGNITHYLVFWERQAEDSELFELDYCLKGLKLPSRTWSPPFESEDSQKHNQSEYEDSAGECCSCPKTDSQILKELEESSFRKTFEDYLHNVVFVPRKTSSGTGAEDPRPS
Insulin receptor (Homo sapiens), sequence (P06213 763-1382 limits assumed): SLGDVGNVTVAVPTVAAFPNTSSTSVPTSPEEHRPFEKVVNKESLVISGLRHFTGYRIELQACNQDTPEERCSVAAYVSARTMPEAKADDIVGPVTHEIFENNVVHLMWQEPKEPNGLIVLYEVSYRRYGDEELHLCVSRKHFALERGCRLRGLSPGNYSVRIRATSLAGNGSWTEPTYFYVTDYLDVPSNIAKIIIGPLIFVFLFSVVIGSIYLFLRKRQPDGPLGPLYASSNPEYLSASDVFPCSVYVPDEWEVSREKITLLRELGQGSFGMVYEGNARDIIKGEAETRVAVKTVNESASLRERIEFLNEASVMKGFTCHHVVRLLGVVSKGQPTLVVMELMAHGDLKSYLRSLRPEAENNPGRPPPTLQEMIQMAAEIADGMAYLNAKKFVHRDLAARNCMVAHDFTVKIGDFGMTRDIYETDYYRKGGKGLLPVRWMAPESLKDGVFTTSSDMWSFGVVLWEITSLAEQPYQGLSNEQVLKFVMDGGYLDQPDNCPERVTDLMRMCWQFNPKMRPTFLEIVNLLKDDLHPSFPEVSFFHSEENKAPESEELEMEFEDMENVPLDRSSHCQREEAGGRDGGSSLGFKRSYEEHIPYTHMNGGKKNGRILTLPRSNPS

[5] = molecular target: Calcium/calmodulin-dependent protein kinase type II subunit delta (Homo sapiens) (UniProt Q13557); assay: Inhibition of human recombinant CaMK2d at 40 nM related to control ULK1
[6] = molecular target: T3, Serine/threonine-protein kinase Sgk1 (Homo sapiens) (UniProt O00141); assay: Inhibition of human recombinant SGK1 at 40 nM related to control ULK1
T3 sequence (whole entry): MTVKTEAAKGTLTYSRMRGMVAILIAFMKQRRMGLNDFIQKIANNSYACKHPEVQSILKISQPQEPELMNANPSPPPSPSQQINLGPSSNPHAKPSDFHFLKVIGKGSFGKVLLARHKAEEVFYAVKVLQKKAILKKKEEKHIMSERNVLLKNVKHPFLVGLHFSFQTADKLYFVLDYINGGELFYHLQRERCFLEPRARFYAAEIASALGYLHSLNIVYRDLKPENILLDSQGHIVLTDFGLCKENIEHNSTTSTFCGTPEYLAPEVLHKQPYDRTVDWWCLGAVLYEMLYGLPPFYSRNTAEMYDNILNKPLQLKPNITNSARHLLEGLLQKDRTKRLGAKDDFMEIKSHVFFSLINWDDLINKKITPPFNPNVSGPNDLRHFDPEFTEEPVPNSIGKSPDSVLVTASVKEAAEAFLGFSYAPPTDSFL

[7] = molecular target: Calcium/calmodulin-dependent protein kinase type 1G (Homo sapiens) (UniProt Q96NX5); assay: Inhibition of human recombinant CaMK1g at 15 nM related to control ULK1
Calcium/calmodulin-dependent protein kinase type 1G (Homo sapiens), sequence (Q96NX5 whole entry): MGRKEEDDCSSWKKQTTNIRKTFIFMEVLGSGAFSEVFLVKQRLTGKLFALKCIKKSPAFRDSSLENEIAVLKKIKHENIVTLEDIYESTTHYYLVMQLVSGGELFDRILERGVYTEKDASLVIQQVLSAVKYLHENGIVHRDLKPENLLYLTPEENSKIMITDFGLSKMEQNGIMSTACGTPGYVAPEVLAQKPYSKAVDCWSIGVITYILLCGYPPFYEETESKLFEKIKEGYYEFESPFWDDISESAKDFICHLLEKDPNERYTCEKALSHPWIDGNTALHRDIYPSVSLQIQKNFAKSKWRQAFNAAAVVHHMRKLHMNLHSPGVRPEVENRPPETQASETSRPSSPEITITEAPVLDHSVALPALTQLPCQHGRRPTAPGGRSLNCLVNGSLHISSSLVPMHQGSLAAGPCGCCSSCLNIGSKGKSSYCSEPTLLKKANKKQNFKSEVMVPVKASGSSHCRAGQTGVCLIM

[8] = molecular target: Tyrosine-protein kinase Fes/Fps (Homo sapiens) (UniProt P07332); assay: Inhibition of human recombinant FES at 15 nM related to control ULK1
Tyrosine-protein kinase Fes/Fps (Homo sapiens), sequence (P07332 whole entry): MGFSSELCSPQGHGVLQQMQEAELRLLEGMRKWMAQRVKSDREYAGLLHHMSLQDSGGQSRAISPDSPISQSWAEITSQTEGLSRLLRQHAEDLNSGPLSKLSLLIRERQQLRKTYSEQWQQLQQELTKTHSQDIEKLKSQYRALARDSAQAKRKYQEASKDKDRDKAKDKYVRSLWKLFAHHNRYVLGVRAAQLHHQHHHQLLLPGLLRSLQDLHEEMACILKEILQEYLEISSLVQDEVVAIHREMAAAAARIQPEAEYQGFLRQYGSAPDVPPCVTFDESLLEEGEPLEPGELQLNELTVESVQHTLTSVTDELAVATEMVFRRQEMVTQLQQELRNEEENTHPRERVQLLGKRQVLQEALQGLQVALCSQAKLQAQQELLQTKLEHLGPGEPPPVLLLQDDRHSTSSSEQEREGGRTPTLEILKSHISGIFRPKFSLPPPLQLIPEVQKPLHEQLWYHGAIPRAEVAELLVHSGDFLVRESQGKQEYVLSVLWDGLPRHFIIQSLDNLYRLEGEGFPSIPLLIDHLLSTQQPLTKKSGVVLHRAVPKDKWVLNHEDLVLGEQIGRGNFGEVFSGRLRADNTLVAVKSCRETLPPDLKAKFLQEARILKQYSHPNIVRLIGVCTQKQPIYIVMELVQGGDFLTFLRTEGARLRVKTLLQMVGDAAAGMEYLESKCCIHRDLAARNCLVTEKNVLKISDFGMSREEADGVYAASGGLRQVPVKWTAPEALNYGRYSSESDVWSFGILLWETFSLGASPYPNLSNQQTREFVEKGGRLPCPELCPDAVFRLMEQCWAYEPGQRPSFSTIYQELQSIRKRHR

[9] = molecular target: Cyclin-dependent kinase 13 (Homo sapiens) (UniProt Q14004); assay: Inhibition of human recombinant CHED at 15 nM related to control ULK1
Cyclin-dependent kinase 13 (Homo sapiens), sequence (Q14004 whole entry, looked up): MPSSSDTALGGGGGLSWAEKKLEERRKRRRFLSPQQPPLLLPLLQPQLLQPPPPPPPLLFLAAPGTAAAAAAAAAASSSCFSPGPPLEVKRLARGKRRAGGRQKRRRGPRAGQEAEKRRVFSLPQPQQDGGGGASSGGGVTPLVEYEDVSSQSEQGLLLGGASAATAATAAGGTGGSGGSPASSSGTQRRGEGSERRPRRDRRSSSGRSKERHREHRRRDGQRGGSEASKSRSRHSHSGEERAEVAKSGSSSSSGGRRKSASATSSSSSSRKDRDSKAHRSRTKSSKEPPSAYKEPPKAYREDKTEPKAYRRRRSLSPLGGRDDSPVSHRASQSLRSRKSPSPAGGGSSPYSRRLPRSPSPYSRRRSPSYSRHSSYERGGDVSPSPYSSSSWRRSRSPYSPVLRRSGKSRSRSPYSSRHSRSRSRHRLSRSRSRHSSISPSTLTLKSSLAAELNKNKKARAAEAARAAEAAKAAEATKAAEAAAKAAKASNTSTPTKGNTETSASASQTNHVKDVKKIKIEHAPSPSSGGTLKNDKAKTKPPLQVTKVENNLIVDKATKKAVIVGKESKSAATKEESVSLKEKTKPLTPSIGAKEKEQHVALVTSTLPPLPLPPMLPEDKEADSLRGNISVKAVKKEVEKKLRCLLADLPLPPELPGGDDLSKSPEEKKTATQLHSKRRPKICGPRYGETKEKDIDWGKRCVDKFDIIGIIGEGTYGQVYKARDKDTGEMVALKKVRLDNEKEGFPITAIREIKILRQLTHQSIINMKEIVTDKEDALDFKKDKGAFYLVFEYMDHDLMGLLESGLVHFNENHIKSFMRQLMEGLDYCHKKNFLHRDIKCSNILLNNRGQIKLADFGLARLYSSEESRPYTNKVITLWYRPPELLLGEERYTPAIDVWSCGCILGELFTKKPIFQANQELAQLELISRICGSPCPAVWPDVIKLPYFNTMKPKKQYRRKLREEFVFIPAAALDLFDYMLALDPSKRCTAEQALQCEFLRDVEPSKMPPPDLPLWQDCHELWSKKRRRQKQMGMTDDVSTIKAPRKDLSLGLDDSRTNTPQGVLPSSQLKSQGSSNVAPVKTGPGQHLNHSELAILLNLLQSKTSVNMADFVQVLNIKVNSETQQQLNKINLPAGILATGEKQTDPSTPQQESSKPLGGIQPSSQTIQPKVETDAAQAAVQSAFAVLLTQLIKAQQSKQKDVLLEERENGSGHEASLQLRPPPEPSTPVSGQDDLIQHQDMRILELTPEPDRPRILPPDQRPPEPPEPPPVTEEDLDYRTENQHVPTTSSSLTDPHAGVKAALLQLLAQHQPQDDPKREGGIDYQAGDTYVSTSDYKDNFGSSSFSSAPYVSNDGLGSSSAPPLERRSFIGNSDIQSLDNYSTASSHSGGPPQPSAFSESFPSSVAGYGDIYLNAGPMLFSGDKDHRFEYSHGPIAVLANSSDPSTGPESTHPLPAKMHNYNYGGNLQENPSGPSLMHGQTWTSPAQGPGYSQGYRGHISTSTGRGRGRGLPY

inhibition [1]: 11%
inhibition [2]: 0%
SMILES: CNC(=O)c1ccccc1Oc1nc(Nc2cc(OC)c(OC)c(OC)c2)ncc1Br

fold change (FC) [3]: 0
inhibition [4]: 0%
fold change (FC) [5]: 0.01
fold change (FC) [6]: 0.1
SMILES: O=C(N[C@@H](C1CC1)C(F)(F)F)c1cc(-c2cnn3cc(-c4ccc(F)cc4)cnc23)cs1

fold change (FC) [7]: 0
fold change (FC) [8]: 0
fold change (FC) [9]: 0
SMILES: CC(C)[C@H](NC(=O)c1cc(-c2cnn3cc(-c4ccc(OCCN5CCCCC5)cc4)cnc23)cs1)C(F)(F)F
